Reference: patent publication US9212182B2, “Bicyclic sulfonamide compounds as sodium channel inhibitors” (AMGEN INC., priority 2013, dated 2015)

target: Nav 1.7 (Homo sapiens (Human), UniProt Q15858); test: in-vitro Nav 1.7 PX (IC50); format: cell-based; conditions: not given
Sequence (Q15858 whole entry): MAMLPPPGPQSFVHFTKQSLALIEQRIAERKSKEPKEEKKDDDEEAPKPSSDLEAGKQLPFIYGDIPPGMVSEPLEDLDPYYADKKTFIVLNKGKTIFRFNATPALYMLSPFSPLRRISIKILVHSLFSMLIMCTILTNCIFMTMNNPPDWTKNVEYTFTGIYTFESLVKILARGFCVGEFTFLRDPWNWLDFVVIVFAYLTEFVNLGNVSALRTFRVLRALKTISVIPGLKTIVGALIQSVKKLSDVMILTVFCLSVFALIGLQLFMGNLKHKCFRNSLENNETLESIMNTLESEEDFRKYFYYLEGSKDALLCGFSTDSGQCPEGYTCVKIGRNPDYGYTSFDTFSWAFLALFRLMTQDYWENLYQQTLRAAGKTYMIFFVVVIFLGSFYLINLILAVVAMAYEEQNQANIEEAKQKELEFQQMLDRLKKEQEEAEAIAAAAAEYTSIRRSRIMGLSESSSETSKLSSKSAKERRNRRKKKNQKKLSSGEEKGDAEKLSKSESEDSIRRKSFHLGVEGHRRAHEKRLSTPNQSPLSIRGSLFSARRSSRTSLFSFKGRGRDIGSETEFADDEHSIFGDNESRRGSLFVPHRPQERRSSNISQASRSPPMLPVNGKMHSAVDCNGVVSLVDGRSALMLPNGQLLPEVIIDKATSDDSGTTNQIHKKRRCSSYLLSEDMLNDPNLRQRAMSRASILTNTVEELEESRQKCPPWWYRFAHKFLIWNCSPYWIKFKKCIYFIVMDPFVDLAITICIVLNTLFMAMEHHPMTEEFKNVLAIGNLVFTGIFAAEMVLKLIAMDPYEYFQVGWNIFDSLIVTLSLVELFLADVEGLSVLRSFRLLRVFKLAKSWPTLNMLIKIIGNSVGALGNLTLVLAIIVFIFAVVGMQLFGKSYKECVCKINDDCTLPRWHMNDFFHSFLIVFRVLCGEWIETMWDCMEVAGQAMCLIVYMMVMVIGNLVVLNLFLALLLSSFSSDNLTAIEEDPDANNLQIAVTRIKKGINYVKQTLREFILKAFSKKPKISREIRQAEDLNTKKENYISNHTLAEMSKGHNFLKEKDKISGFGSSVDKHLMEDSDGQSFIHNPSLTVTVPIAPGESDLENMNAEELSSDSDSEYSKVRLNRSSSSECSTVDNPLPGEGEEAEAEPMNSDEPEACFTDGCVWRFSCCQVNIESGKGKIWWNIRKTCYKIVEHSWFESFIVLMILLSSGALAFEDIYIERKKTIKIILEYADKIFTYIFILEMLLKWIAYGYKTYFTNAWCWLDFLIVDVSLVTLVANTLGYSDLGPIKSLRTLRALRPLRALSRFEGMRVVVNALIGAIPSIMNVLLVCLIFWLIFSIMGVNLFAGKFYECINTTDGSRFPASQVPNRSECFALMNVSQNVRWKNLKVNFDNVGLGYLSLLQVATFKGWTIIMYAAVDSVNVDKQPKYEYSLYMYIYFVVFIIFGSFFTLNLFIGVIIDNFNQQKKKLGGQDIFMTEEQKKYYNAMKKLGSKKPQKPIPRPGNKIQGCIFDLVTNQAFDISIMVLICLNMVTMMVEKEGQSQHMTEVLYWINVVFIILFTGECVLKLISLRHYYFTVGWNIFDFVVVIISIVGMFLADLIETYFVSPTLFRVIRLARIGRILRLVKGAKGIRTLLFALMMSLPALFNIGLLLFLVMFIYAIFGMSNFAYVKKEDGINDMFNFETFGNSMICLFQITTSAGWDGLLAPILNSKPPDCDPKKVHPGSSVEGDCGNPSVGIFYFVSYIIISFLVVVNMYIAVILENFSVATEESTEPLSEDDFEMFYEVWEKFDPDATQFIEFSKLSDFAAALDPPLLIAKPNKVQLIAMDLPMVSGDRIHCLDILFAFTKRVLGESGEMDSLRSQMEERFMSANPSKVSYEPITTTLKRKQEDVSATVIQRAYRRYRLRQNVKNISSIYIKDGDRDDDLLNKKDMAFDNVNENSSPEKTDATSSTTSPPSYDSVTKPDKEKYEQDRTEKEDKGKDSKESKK

Compound	IC50
COc1cc(C#CC2(F)CCCC2)c(F)cc1-n1c(=O)ccc2cc(S(=O)(=O)Nc3ccon3)ccc21 (atropisomer, axis not shown; (P)) [Example 1153, (P)-1-(5-fluoro-4-((1-fluorocyclopentyl)ethynyl)-2-methoxyphenyl)-N-3-isoxazolyl-2-oxo-1,2-dihydro-6-quinolinesulfonamide]	35 nM
COc1cc(-c2ccc(C(F)(F)F)cc2)c(F)cc1-n1c(=O)ccc2cc(S(=O)(=O)Nc3ncco3)ccc21 (atropisomer, axis not shown; (P)) [Example 636, (P)-1-(2-fluoro-5-methoxy-4′-(trifluoromethyl)-4-biphenylyl)-N-1,3-oxazol-2-yl-2-oxo-1,2-dihydro-6-quinolinesulfonamide]	31 nM

Second part, the molecule after the results:

IC50	Compound
472 nM	COc1nc(C2CC2)c(Cl)cc1-n1c(=O)ccc2cc(S(=O)(=O)Nc3ccon3)ccc21 (atropisomer, axis not shown; (P)) [Example 1230, (P)-1-(5-chloro-6-cyclopropyl-2-methoxy-3-pyridinyl)-N-3-isoxazolyl-2-oxo-1,2-dihydro-6-quinolinesulfonamide]
4310 nM	COc1cc(-c2ccc(Cl)c(F)c2)ccc1-n1c(=O)ccc2cc(S(=O)(=O)Nc3ccon3)ccc21 (atropisomer, axis not shown; (M)) [Example 579, (M)-1-(4′-chloro-3′-fluoro-3-methoxy-4-biphenylyl)-N-3-isoxazolyl-2-oxo-1,2-dihydro-6-quinolinesulfonamide]

same assay, conditions: in-vitro Nav 1.7 PX data

Compound	IC50
COc1cc(-c2cccc(C(F)(F)F)c2)ccc1-n1c(=O)ccc2cc(S(=O)(=O)Nc3ncco3)ccc21 [Example 916, 1-(3-methoxy-3′-(trifluoromethyl)-4-biphenylyl)-N-1,3-oxazol-2-yl-2-oxo-1,2-dihydro-6-quinolinesulfonamide]	50 nM
COc1cc(-c2cccc(C)c2)ccc1-n1c(=O)ccc2cc(S(=O)(=O)Nc3ccnc(C)n3)ccc21 [Example 1132, 1-(3-methoxy-3′-methyl-4-biphenylyl)-N-(2-methyl-4-pyrimidinyl)-2-oxo-1,2-dihydro-6-quinolinesulfonamide]	192 nM
COc1cc(-c2cc(F)cc(Cl)c2)c(F)cc1-n1c(=O)ccc2cc(S(=O)(=O)Nc3ccc(F)cn3)ccc21 [Example 920, 1-(3′-chloro-2,5′-difluoro-5-methoxy-4-biphenylyl)-N-(5-fluoro-2-pyridinyl)-2-oxo-1,2-dihydro-6-quinolinesulfonamide]	60 nM
COc1cc(-c2cccc(C(F)(F)F)c2)ccc1-n1c(=O)ccc2cc(S(=O)(=O)Nc3cnccn3)ccc21 [Example 915, 1-(3-methoxy-3′-(trifluoromethyl)-4-biphenylyl)-2-oxo-N-2-pyrazinyl-1,2-dihydro-6-quinolinesulfonamide]	31 nM
COc1cc(C#CC2CCCC2)c(F)cc1-n1c(=O)ccc2cc(S(=O)(=O)Nc3ncco3)ccc21 [Example 1136, 1-(4-(cyclopentylethynyl)-5-fluoro-2-methoxyphenyl)-N-1,3-oxazol-2-yl-2-oxo-1,2-dihydro-6-quinolinesulfonamide]	48 nM
COc1cc(-c2ccc(Cl)cc2)c(F)cc1-n1c(=O)ccc2cc(S(=O)(=O)Nc3ccnc(C)n3)ccc21 [Example 751, 1-(4′-chloro-2-fluoro-5-methoxy-4-biphenylyl)-N-(2-methyl-4-pyrimidinyl)-2-oxo-1,2-dihydro-6-quinolinesulfonamide]	67 nM
COc1cc(-c2cc(F)cc(Cl)c2)c(F)cc1-n1c(=O)ccc2cc(S(=O)(=O)Nc3cc(C)ncn3)ccc21 [Example 933, 1-(3′-chloro-2,5′-difluoro-5-methoxy-4-biphenylyl)-N-(6-methyl-4-pyrimidinyl)-2-oxo-1,2-dihydro-6-quinolinesulfonamide]	8 nM
COc1cc(-c2cccc(C(F)(F)F)n2)c(F)cc1-n1c(=O)ccc2cc(S(=O)(=O)Nc3ccon3)ccc21 [Example 794, 1-(5-fluoro-2-methoxy-4-(6-(trifluoromethyl)-2-pyridinyl)phenyl)-N-3-isoxazolyl-2-oxo-1,2-dihydro-6-quinolinesulfonamide]	96 nM
COc1cc(-c2cc(OC)c(-n3c(=O)ccc4cc(S(=O)(=O)Nc5ccon5)ccc43)cc2F)ccn1 [Example 739, 1-(5-fluoro-2-methoxy-4-(2-methoxy-4-pyridinyl)phenyl)-N-3-isoxazolyl-2-oxo-1,2-dihydro-6-quinolinesulfonamide]	224 nM
COc1cc(-c2cc(F)cc(C(F)(F)F)c2)ccc1-n1c(=O)ccc2cc(S(=O)(=O)Nc3cc(C)ncn3)ccc21 [Example 1101, 1-(3′-fluoro-3-methoxy-5′-(trifluoromethyl)-4-biphenylyl)-N-(6-methyl-4-pyrimidinyl)-2-oxo-1,2-dihydro-6-quinolinesulfonamide]	41 nM
COc1cc(C#CC(C)(C)O)c(F)cc1-n1c(=O)ccc2cc(S(=O)(=O)Nc3ccon3)ccc21 [Example 1139, 1-(5-fluoro-4-(3-hydroxy-3-methyl-1-butyn-1-yl)-2-methoxyphenyl)-N-3-isoxazolyl-2-oxo-1,2-dihydro-6-quinolinesulfonamide]	7380 nM

Further lines, results first:

IC50	Compound
6 nM	COc1cc(-c2cccc(Cl)c2C)c(F)cc1-n1c(=O)ccc2cc(S(=O)(=O)Nc3ccon3)ccc21 [Example 712, 1-(3′-chloro-2-fluoro-5-methoxy-2′-methyl-4-biphenylyl)-N-3-isoxazolyl-2-oxo-1,2-dihydro-6-quinolinesulfonamide]
48 nM	COc1ccc(-c2cc(OC)c(-n3c(=O)ccc4cc(S(=O)(=O)Nc5ccon5)ccc43)cc2F)cc1C [Example 749, 1-(2-fluoro-4′,5-dimethoxy-3′-methyl-4-biphenylyl)-N-3-isoxazolyl-2-oxo-1,2-dihydro-6-quinolinesulfonamide]
3440 nM	COc1nc(-c2ccc(Cl)c(C)c2)c(Cl)cc1-n1c(=O)ccc2cc(S(=O)(=O)Nc3ccon3)ccc21 [Example 1085, 1-(5-chloro-6-(4-chloro-3-methylphenyl)-2-methoxy-3-pyridinyl)-N-3-isoxazolyl-2-oxo-1,2-dihydro-6-quinolinesulfonamide]
12 nM	COc1ccc(-c2ccc(C)c(Cl)c2)cc1-n1c(=O)ccc2cc(S(=O)(=O)Nc3ccon3)ccc21 [Example 885, 1-(3′-chloro-4-methoxy-4′-methyl-3-biphenylyl)-N-3-isoxazolyl-2-oxo-1,2-dihydro-6-quinolinesulfonamide]

same assay, conditions: in-vitro PatchXpress (PX)

IC50	Compound
1100 nM	COc1cc(-c2ccc(Cl)c(F)c2)c(F)cc1-n1c(=O)ccc2cc(S(=O)(=O)Nc3ccon3)ccc21 (atropisomer, axis not shown; (P)) [Example 503, (P)-1-(4′-chloro-2,3′-difluoro-5-methoxy-4-biphenylyl)-N-3-isoxazolyl-2-oxo-1,2-dihydro-6-quinolinesulfonamide]
342 nM	COc1cc(-c2cc(F)cnc2OC)c(F)cc1-n1c(=O)ccc2cc(S(=O)(=O)Nc3ccon3)ccc21 [Example 531, 1-(5-fluoro-4-(5-fluoro-2-methoxy-3-pyridinyl)-2-methoxyphenyl)-N-3-isoxazolyl-2-oxo-1,2-dihydro-6-quinolinesulfonamide]
34 nM	COc1cc(-c2cccc(C#N)c2)c(F)cc1-n1c(=O)ccc2cc(S(=O)(=O)Nc3ccon3)ccc21 (atropisomer, axis not shown; (P)) [Example 498, (P)-1-(3′-cyano-2-fluoro-5-methoxy-4-biphenylyl)-N-3-isoxazolyl-2-oxo-1,2-dihydro-6-quinolinesulfonamide]
